In article PMC6695598, “The Development of Tetrazole Derivatives as Protein Arginine Methyltransferase I (PRMT I) Inhibitors” (International Journal of Molecular Sciences, 2019):
Entries after “also recorded” stand apart in the source; their conditions may differ.

Tests used:
PRMT1 [1] = biological target: T1, PRMT1 (Homo sapiens, UniProt Q99873); assay: radioactive PRMT1 methylation inhibition assay ([3H]-SAM, biotinylated histone H4 peptide); assay type: biochemical
Method: A series of 1,5-substituded tetrazole derivatives were synthesized to investigate the structure-activity relationship (SAR) of PRMT1 inhibitors (Table 1). […] The chemical modification of these compounds is mainly focused on the substituted benzene ring. The initial screening of these compounds was carried out using the radioactive PRMT1 methylation inhibition assay, which measured the amount of methyl groups that transferred from [^3H]-SAM to a biotinylated histone H4 peptide (ac- […](Biotin)). […] In the second step, the Group II compounds were designed and synthesized by extending the ethylenediamine side chain to propylenediamine.
(§1) The enzyme inhibitory activities were measured by the radioisotope assay in ShangHai Chempartner Co. Ltd. according to the standard protocol. The similar procedure was recently performed in the publication The radioactive methylation assay was performed in 1× assay buffer (modified Tris buffer) system containing enzyme (PRMT1/5), peptide and [^3H]-SAM solution and compounds on the assay plate. […] Afterwards, the reaction was stopped with addition of 5 μL cold SAM solution to per well. Then, 25 μL of volume per well was transferred to Flashplate from assay plate and incubated for 1 h minimum at room temperature. Finally, the Flashplate was washed with dH2O and 0.1% Tween-20 three times and then reading plate in Mi crobeta using program ^3H-Flashplate. The data was analyzed in GraphPad Prism 5 to obtain IC50 values.

PRMT1 [2] = biological target: T1, PRMT1; assay: Mechanism of Action (MOA) study, competition with SAM and peptide on PRMT1; assay type: biochemical; settings: IC50 at varied SAM (0.5-60× Km) or peptide (0.5-100× Km) concentrations
Text: Both PRMT1 and PRMT6 are Type I PRMTs, and their structures share the high degree similarity. […] Based on the crystal structure, it can be predicated that MS023 should be a competitive inhibitor against the peptide. […] There are potential explanations for the current contradictory results. First, the main binding effects of the substrate were from the outside regions of arginine-binding site.
The method is consistent with the procedure described above.

[3] = WST-8/CCK8 cell viability assay; assay type: cell-based; settings: human, MDA-MB-231 breast cancer cells, read-out: IC50 against MDA-MB-231 (cytotoxicity)
Method: The MDA-MB-231 cell line used in this study was obtained from the American Type Culture Collection (ATCC, Rockville, MD, USA), and was grown in dulbecco’s modified eagle medium (DMEM, Gibco, Thermo Fisher Scientific, Waltham, MA, USA) supplemented with 10% fetal bovine serum (FBS) (Gibco). The cells were incubated at 37 °C and 5% CO2.
The cytotoxicity was determined by the CCK8 assay. Briefly, MDA-MB-231 cells (5 × 10^3 cells/well) were seeded in 96-well plates in DMEM containing 10% FBS and grew for 24 h. The exponentially growing cells were incubated with various concentrations of compounds for 48h/72h in serum free DMEM at 37 °C (5% CO2, 95% humidity). CCK8 reagent (10 μL) was added to each well and incubated for further 2 h, and then the absorbance was analyzed in a multiwell-plate reader (BioTek ELx800) at 450 nm.

PRMT5 = PRMT5 (Homo sapiens, UniProt O14744); assay: radioactive methylation assay, PRMT5 selectivity; assay type: biochemical
Method: as §1

MDA-MB-231 cells = assay: Western blotting of PRMT1 and Wnt pathway markers; assay type: cell-based
Method: MDA-MB-231 cells were maintained on 6-well plates at the appropriate density. […] Total cell lysates were separated by SDS-PAGE and transferred onto nitrocellulose membranes. The blots were blocked with 5% nonfat milk for 30 min and the target proteins were probed with appropriate specific antibody overnight at 4 °C, respectively. The blots were washed with TBST for three times and then incubated with anti-rabbit secondary antibody (HRP conjugated) for 1 h. After another three washes, bands were detected in a ChemiScope3400 imaging system using ECL substrate (Millipore, Burlington, MS, USA). Primary antibodies used were as follows: anti-PRMT1 (Cell Signaling Technology no.2449, Danvers, MA, USA), anti-ADMA (Cell Signaling Technology no.13522), anti-SDMA (Cell Signaling Technology no.13222), anti-GAPDH (Cell Signaling Technology no. 5174), anti-H4R3me2a Abcam, ab9231), Wnt3a (Cell Signaling Technology no. 2721s), anti-DDAH (Abcam, ab9231, Cambridge, UK), Wnt5a/b (Cell Signaling Technology no. 2530s), β-catenin (Cell Signaling Technology no. 8480s), MMP9 (Cell Signaling Technology no.1366s). The results were obtained from multiple membranes. No significant differences were observed among loading controls. Therefore, we presented the representative loading control blot image in the figure.

PRMT6 = system: PRMT6; parameters: method as in PMID 26598975; settings: cited from earlier work
[4] = MDA-MB-231, 48 h, top concentration 200 μM

T1 sequence (Q99873 whole entry): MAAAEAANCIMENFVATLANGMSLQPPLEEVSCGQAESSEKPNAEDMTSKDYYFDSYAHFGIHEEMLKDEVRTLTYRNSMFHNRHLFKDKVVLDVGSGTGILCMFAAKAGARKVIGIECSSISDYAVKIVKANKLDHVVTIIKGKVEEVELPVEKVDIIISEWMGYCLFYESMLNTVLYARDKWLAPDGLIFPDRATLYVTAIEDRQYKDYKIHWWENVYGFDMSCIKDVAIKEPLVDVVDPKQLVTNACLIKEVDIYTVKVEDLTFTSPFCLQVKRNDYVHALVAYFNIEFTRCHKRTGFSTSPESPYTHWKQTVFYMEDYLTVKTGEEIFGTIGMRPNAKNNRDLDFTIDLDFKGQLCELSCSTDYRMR
Sequence of PRMT5 (O14744 whole entry, species assumed): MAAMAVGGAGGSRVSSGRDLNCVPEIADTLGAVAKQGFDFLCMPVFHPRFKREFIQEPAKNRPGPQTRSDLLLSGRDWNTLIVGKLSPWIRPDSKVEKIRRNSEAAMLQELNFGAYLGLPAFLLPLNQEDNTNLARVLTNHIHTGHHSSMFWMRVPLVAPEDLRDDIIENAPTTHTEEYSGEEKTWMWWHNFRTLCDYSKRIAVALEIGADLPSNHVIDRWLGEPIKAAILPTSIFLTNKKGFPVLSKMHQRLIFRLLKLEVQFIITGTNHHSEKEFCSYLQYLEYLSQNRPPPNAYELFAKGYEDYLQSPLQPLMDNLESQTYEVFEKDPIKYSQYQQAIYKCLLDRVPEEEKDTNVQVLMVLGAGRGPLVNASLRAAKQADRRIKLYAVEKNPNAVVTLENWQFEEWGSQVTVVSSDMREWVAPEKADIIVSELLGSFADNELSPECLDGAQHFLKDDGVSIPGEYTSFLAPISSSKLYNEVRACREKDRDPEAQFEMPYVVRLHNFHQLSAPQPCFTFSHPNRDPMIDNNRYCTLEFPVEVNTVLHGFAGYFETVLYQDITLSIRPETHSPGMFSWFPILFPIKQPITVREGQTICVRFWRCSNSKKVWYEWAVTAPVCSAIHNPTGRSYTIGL
Sequence of PRMT5 (Q9BQA1 whole entry partner, species assumed): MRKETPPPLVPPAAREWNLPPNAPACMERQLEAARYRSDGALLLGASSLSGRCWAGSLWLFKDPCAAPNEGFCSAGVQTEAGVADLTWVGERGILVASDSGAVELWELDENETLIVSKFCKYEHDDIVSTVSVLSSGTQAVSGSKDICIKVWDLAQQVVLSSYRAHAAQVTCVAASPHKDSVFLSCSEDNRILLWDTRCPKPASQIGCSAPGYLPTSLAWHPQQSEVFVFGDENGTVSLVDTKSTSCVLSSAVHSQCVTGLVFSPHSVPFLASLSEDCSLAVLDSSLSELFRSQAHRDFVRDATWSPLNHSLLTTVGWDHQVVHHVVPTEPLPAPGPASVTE

## CNCCN(C)Cc1nnnn1-c1ccc(OC(C)C)cc1.Cl [9a, N,N’-Dimethyl-N’-(1-(4-isopropoxyphenyl)-1H-tetrazol-5-yl-methyl)ethylenediamine hydrochloride]
PRMT1 [1]
  IC50: 3.5 µM
PRMT1 [1]; 10 μM compound, initial screening
  inhibition at 10 µM: > 47%
PRMT1 [2]
  mode of inhibition with respect to SAM and peptide substrate: noncompetitive inhibitor for either the cofactor SAM or peptide substrate; also recorded: non-competitive pattern with respect to either SAM or substrate arginine; also recorded: did not compete with either SAM or peptides
[3]; 48 h
  IC50 at 48 h: > 500 µM
[3]; 72 h
  IC50 at 72 h: 541 ± 6.5 µM
PRMT5
  IC50: > 100 µM
MDA-MB-231 cells; [4]
  global level of ADMA: significantly decreased in a concentration-dependent manner; also recorded: significantly decreased in concentration-dependent manners
  global level of H4R3me2as: decreased the global level of H4R3me2as in a concentration-dependent manner; also recorded: significantly decreased in concentration-dependent manners
  global level of SDMA: not significantly affected; also recorded: not significantly changed
  level of DDAH: significantly decreased in a concentration-dependent manner; also recorded: significantly decreased in concentration-dependent manners
  level of Wnt3a: significantly decreased in concentration-dependent manners
  level of Wnt5a: did not change significantly; also recorded: not changed
  level of β-catenin: significantly decreased in concentration-dependent manners
MDA-MB-231 cells; MDA-MB-231, top concentration 200 μM
  cell damage during the western blotting experiment: no obvious cell damage was observed

## CC(C)Oc1ccc(-c2c[nH]cc2CN(C)CCN)cc1 [MS023]
PRMT6
  mode of inhibition with respect to SAM and peptide substrate: noncompetitive with either SAM or peptide substrate
